We go through 29 molecules from US6593480B2 (Abbott Laboratories, priority 1999, dated 2003).

The structures appear in SMILES notation.

The first assay addresses T1, Human glucocorticoid receptors (Homo sapiens, UniProt P04150).
T1 construct: made in house; host or cells: Sf9 insect cells, recombinant baculovirus (BAC-TO-BAC)
T1 sequence (P04150 1-777): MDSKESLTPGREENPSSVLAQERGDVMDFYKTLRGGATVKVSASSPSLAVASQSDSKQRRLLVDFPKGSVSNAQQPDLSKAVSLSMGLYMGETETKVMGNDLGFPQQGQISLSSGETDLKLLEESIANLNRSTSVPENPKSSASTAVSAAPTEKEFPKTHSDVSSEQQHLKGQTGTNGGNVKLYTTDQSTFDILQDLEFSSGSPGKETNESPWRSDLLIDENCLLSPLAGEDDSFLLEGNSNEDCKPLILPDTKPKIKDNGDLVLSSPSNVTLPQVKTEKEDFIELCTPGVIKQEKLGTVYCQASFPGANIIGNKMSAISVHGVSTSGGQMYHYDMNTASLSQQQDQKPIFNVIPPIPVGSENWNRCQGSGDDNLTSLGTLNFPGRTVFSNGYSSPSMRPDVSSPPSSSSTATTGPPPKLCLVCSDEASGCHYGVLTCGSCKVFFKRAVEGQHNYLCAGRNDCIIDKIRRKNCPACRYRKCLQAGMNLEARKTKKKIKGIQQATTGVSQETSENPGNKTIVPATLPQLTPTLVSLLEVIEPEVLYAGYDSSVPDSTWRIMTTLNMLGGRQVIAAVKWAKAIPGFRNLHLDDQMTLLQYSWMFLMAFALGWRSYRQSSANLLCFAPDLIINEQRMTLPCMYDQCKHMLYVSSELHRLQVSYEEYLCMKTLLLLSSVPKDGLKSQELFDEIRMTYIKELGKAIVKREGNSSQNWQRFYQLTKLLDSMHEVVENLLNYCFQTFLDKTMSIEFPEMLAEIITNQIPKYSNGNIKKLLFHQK
Put plainly: Radioligand filter binding assay, displacement of 3(H)-dexamethasone from human glucocorticoid receptor cytosol. The conditions noted are these: 1.7 μM test compound; inhibition of 3(H)-dex binding to hGR.
Procedure: Dexamethasone hereafter referred to as dex was purchased from SIGMA. […] Human glucocorticoid receptors were extracted from Sf9 cells infected with a recombinant baculovirus transfer vector containing the cloned hGR genes. […] The recombinant baculovi, uses expressing hGR were amplified and used to infect Sf9 cells. Infected cells were harvested 48 hrs post infection. […] The concentration of hGR in the extract was measured as specific ^3(H)-dex binding with the G25-assay as described in J. Steroid Biochem. Molec. […] The extract was aliquoted and stored at −70° C.
The filter binding assay: Dilution series of the test compounds and dex as reference were made from 10 mM (1 mM dex) stock solutions in DMSO. 10 μl of the dilutions was added in duplicates to the wells. The cell extracts were diluted 10 fold in EPMo +MTG buffer (1 mM EDTA, HPO4 20 mM (pH8), 6 mM MTG). […] 110 μl of the diluted ^3(H)-dex were added to the wells. The final concentration of hGR in the experiment was estimated to 1 nM. All preparations were made in ambient temperature (20-25° C.) on ice and with +4° C. temperated buffers. The plates were incubated over night at +4° C. (15-20hrs).
The incubation was stopped by filtration through GF/B filter on the Tomtec Cellharvester. The filtration on the Tomtec Cellharvester was programmed as follows: 1) Preparation before filtration with EP buffer (1 mM EDTA 20 mM HPO4 (pH8)) 2×(Wash/Asp 0.6 sec., Asp 0.5 sec.); 2) Prewet of GF/B filter with EP+PEI buffer (EP buffer, 0.3% Polyesthylenimine) (Asp 0.8 sec.). 3) Filtration/harvesting of the 96-well incubation plate 3×(Wash/Asp 0.6 sec., Asp 0.5 sec.). The GF/B filter was dried for at least 1 hr at 65° C. A MeltiLex scintillation wax was melted onto the filter with the Microsealer. The filter was placed in a samplebag, which was thereafter trimmed with scissors to fit the filter cassette. The cassette were placed in the Microbeta and measured for 1 min/position, returning ccpm (conrected counts per minute).
The Microbeta-instrument generates the mean cpm (counts per minute) value/minute and corrects for individual variations between the detectors thus generating corrected cpm values.
Regarding `C=CCCCc1cccc(C2Oc3cccc(OC)c3-c3ccc(NS(C)(=O)=O)cc32)c1` (centres unmarked) [Example 111, N-{1-nethoxy-6-[3-(4-pentenyl)phenyl]-6H-benzo[c]chromen-8-yl}methanesulfonamide], the “GR BINDING (% Inhibition @ 1.7 μM)” value is given as 87.4%.

Take `COc1cccc2c1-c1ccc(CS(N)(=O)=O)cc1C(C1CCCCC1=O)O2` (centres unmarked) [Example 72, (1-methoxy-6-(2-(1-oxocyclohexyl))-6H-dibenzo(b,d)pyran-8-yl)methanesulfonamide]: the “GR BINDING (% Inhibition @ 1.7 μM)” value came to 58.8%.

Turning to `COc1cccc2c1-c1ccc(NS(=O)(=O)C(C)C)cc1C(c1ccccc1)O2` (centres unmarked) [Example 8, (1-methoxy-6-phenyl-6H-dibenzo(b,d)pyran-8-yl)isopropanesulfonamide], the “GR BINDING (% Inhibition @ 1.7 μM)” value worked out at 87.9%.

For `COc1cccc2c1-c1ccc(NS(C)(=O)=O)cc1C(c1cccc(O)c1)O2` (centres unmarked) [Example 34, (1-methoxy-6-(3-hydroxy)phenyl-6H-dibenzo(b,d)pyran-8-yl)-methanesulfonamide], the “GR BINDING (% Inhibition @ 1.7 μM)” value turned out to be 81.6%.

For `CCC(=O)Nc1ccc2c(c1)C(c1ccccc1)Oc1cccc(OC)c1-2` (centres unmarked) [Example 13, (1-methoxy-6-phenyl-6H-dibenzo(b,d)pyran-8-yl)propionamide], the “GR BINDING (% Inhibition @ 1.7 μM)” value is listed as 85.4%.

`COc1cccc2c1-c1ccc(NC(=O)C3CC3)cc1C(c1ccccc1)O2` (centres unmarked) [Example 16, (1-methoxy-6-phenyl-6H-dibenzo(b,d)pyran-8-yl)cyclopropanecarboxamide]: the “GR BINDING (% Inhibition @ 1.7 μM)” value is recorded as 74.3%.

The same assay, now with this note: 1.7 μM test compound; inhibition of 3(H)-dex binding to hGR; read-out: GR BINDING (% Inhibition @ 1.7 μM).
A word on the inhibition: it is the share of the control response that was lost under treatment. As for `COc1cccc2c1-c1ccc(NS(C)(=O)=O)cc1C(/C=C/c1ccccc1)O2` (centres unmarked) [Example 89, N-{1-methoxy-6-[(E)-2-phenylethenyl]-6H-benzo[c]chromen-8-yl}methanesulfonamide], the inhibition at 1.7 µM was 86.1%.

In the case of `COc1cccc2c1-c1ccc(NS(C)(=O)=O)cc1C(Cc1cccc(C#N)c1)O2` (centres unmarked) [Example 49], the inhibition at 1.7 µM was 75.1%.

Turning to `COc1cccc2c1-c1ccc(CC(N)=O)cc1C(c1ccccc1)O2` (centres unmarked) [Example 12, (1-methoxy-6-phenyl-6H-dibenzo(b,d)pyran-8-yl)acetamide], the inhibition at 1.7 µM is 86.1%.

On to `COc1cccc2c1-c1ccc(NCC3CC3)cc1C(c1ccccc1)O2` (centres unmarked) [Example 20, (1-methoxy-6-phenyl-6H-dibenzo(b,d)pyran-8-yl)cyclopropylmethylamine], for which the inhibition at 1.7 µM is 54.4%.

On to `CCOC(=O)CCCc1cccc(C2Oc3cccc(OC)c3-c3ccc(NS(C)(=O)=O)cc32)c1` (centres unmarked) [Example 150, ethyl 4-(3-{1-methoxy-8-[(methylsulfonyl)amino]-6H-benzo[c]chromen-6-yl}phenyl)butanoate], for which the inhibition at 1.7 µM is 90.8%.

Consider `COc1cccc2c1-c1ccc(NS(C)(=O)=O)cc1C(C#N)O2` (centres unmarked) [Example 90, N-(6-cyano-1-methoxy-6H-benzo[c]chromen-8-yl)methanesulfonamide], for which the inhibition at 1.7 µM was determined as 55.1%.

In the case of `C=CCc1cccc2c1-c1ccc(NS(C)(=O)=O)cc1C(c1ccccc1)O2` (racemic) [Example 41], the inhibition at 1.7 µM came to 88.7%.

As for `COc1cccc2c1-c1ccc(NS(C)(=O)=O)cc1C(c1cccc(CCCC(=O)N3CCCCC3)c1)O2` (centres unmarked) [Example 142, N-(1-methoxy-6-{3-[4-oxo-4-(1-piperidinyl)butyl]phenyl}-6H-benzo[c]chromen-8-yl)methanesulfonamide], the inhibition at 1.7 µM is 78.2%.

For the molecule `C=CCOc1ccc2c(c1OC)-c1ccc(NS(C)(=O)=O)cc1C(c1ccccc1)O2` (centres unmarked) [Example 105, N-[2-(allyloxy)-1-methoxy-6-phenyl-6H-benzo[c]chromen-8-yl]methanesulfonamide], the inhibition at 1.7 µM was 83.5%.

As for `C[Si](C)(C)CCCc1cccc(C2Oc3cccc(OC(F)F)c3-c3ccc(NS(C)(=O)=O)cc32)c1` (centres unmarked) [Example 134, N-(1-(difluoromethoxy)-6-{3-[3-(trimethylsilyl)propyl]phenyl}-6H-benzo[c]chromen-8-yl)methanesulfonamide], the inhibition at 1.7 µM was determined as 88.8%.

Regarding `CCCC1Oc2cccc(OC(F)F)c2-c2ccc(NS(C)(=O)=O)cc21` (racemic) [Example 27], the inhibition at 1.7 µM worked out at 86.8%.

Consider `COc1cccc2c1-c1ccc(NS(C)(=O)=O)cc1C(c1cccc(CCCC#N)c1)O2` (centres unmarked) [Example 112, N-{6-[3-(3-cyanopropyl)phenyl]-1-methoxy-6H-benzo[c]chromen-8-yl}methanesulfonamide], for which the inhibition at 1.7 µM stood at 91.7%.

As for `COc1cccc2c1-c1ccc(NS(C)(=O)=O)cc1C(c1cccc(N(C)S(=O)(=O)c3ccc(-c4ccon4)s3)c1)O2` (centres unmarked) [Example 149, 5-(3-isoxazolyl)-N-(3-{1-methoxy-8-[(methylsulfonyl)amino]-6H-benzo[c]chromen-6-yl}phenyl)-N-methyl-2-thiophenesulfonamide], the inhibition at 1.7 µM was 69%.

Take `COCCCCCCc1cccc(C2Oc3cccc(OC(F)F)c3-c3ccc(NS(C)(=O)=O)cc32)c1` (centres unmarked) [Example 141, N-{1-(difluoromethoxy)-6-[3-(6-methoxyhexyl)phenyl]-6H-benzo[c]chromen-8-yl}methanesulfonamide]: the inhibition at 1.7 µM was 93.6%.

For the molecule `COc1cccc2c1-c1ccc(NS(C)(=O)=O)cc1C(c1cccc(N(C)C(C)=O)c1)O2` (centres unmarked) [Example 110, N-(3-{1-methoxy-8-[(methylsulfonyl)amino]-6H-benzo[c]chromen-6-yl}phenyl)-N-methylacetamide], the inhibition at 1.7 µM was 74.8%.

As for `CCOC(=O)CCC1Oc2cccc(OC)c2-c2ccc(NS(C)(=O)=O)cc21` (centres unmarked) [Example 46], the inhibition at 1.7 µM is 84.6%.

Regarding `CCOC(=O)CCCc1cccc(C2Oc3cccc(OC(F)F)c3-c3ccc(NS(C)(=O)=O)cc32)c1` (centres unmarked) [Example 115, ethyl 4-(3-{1-(difluoromethoxy)-8-[(methylsulfonyl)amino]-6H-benzo[c]chromen-6-yl}phenyl)butanoate], the inhibition at 1.7 µM came to 83.5%.

For `COc1ccc(S(=O)(=O)N(C)c2cccc(C3Oc4cccc(OC)c4-c4ccc(NS(C)(=O)=O)cc43)c2)cc1` (centres unmarked) [Example 148, 4-methoxy-N-(3-{1-methoxy-8-[(methylsulfonyl)amino]-6H-benzo[c]chromen-6-yl}phenyl)-N-methylbenzenesulfonamide], the inhibition at 1.7 µM is 82.7%.

For `COCCOCOc1ccc2c(c1OC)-c1ccc(NS(C)(=O)=O)cc1C(c1ccccc1)O2` (centres unmarked) [Example 106, N-{1-methoxy-2-[(2-methoxyethoxy)methoxy]-6-phenyl-6H-benzo[c]chromen-8-yl}methanesulfonamide], the inhibition at 1.7 µM came to 42.7%.

In the case of `CS(=O)(=O)Nc1ccc2c(c1)C(c1ccccc1)Oc1cccc(-c3ccco3)c1-2` (racemic) [Example 40], the inhibition at 1.7 µM was 69.3%.

Regarding `C=CCOc1cccc2c1-c1ccc(NS(C)(=O)=O)cc1C(c1ccccc1)O2` (centres unmarked) [Example 78, N-[1-(allyloxy)-6-phenyl-6H-benzo[c]chromen-8-yl]methanesulfonamide], the inhibition at 1.7 µM is 77.9%.

With `CCOC(=O)CCCCCC1Oc2cccc(OC)c2-c2ccc(NS(C)(=O)=O)cc21` (centres unmarked) [Example 79, ethyl 6-{1-methoxy-8-[(methylsulfonyl)amino]-6H-benzo[c]chromen-6-yl}hexanoate], the inhibition at 1.7 µM was determined as 66.1%.

For the molecule `CC(=O)c1cccc2c1-c1ccc(NS(C)(=O)=O)cc1C(c1ccccc1)O2` (centres unmarked) [Example 38], the inhibition at 1.7 µM is 58.9%.
